Reference: patent publication EP0677522A1, “8-METHOXYQUINOLONECARBOXYLIC ACID DERIVATIVE” (priority 1992, dated 1994)
Values after ≈ are worked out from the molar mass of the structure shown.

Experiments:
[1] = tested on: Acinetobacter calcoaceticus ATCC 13006; assay: In vitro antibacterial activity (MIC), Japan Society of Chemotherapy Standard; type: cell-based; settings: ATCC13006, inoculated cells 10⁶ cells/ml
Procedure: (§1) The in vitro antibacterial activity (minimum inhibitory concentration, MIC, µg/ml) of the test compounds was determined according to Japan Society of Chemotherapy Standard [Chemotherapy, vol. 29, pp 76-79 (1981)].
(§2) Inoculated cells were 10⁶ cells/ml and the strain with * was incubated in a medium supplemented with 10% horse blood. The mark "1)" means quinolone resistant MRSA and "2)" means quinolone resistant bacteria.

[2] = tested on: Citrobacter freundii IFO 12681; assay: as above; type: cell-based; settings: IFO12681, inoculated cells 10⁶ cells/ml
Procedure: as §1, §2

[3] = tested on: Corynebacterium diphtheriae Tronto; assay: as above; type: cell-based; settings: inoculated cells 10⁶ cells/ml, medium supplemented with 10% horse blood
Procedure: as §1, §2

[4] = tested on: E. avium EAY-30; assay: as above; type: cell-based; settings: Enterococcus avium, EAY30, inoculated cells 10⁶ cells/ml
Procedure: as §1, §2

[5] = tested on: E. faecalis EFY-204; assay: as above; type: cell-based; settings: Enterococcus faecalis, EFY204; quinolone resistant bacteria; inoculated cells 10⁶ cells/ml
Procedure: as §1, §2

[6] = tested on: E. faecium EFMY-207; assay: as above; type: cell-based; settings: Enterococcus faecium, EFMY207; quinolone resistant bacteria; inoculated cells 10⁶ cells/ml
Procedure: as §1, §2

[7] = tested on: E. faecium EFMY-28; assay: as above; type: cell-based; settings: Enterococcus faecium, EFMY28; inoculated cells 10⁶ cells/ml
Procedure: as §1, §2

[8] = tested on: Enterobacter cloacae IFO 12937; assay: as above; type: cell-based; settings: IFO12937, inoculated cells 10⁶ cells/ml
Procedure: as §1, §2

[9] = tested on: Enterococcus faecalis LS-101; assay: as above; type: cell-based; settings: LS101, inoculated cells 10⁶ cells/ml
Procedure: as §1, §2

[10] = tested on: Escherichia coli NIHJ JC-2; assay: as above; type: cell-based; settings: NIHJJC2, inoculated cells 10⁶ cells/ml
Procedure: as §1, §2

[11] = tested on: Klebsiella pneumoniae DT; assay: as above; type: cell-based; settings: inoculated cells 10⁶ cells/ml
Procedure: as §1, §2

[12] = tested on: P. mirabilis IFO 3849; assay: as above; type: cell-based; settings: Proteus mirabilis, IFO3849; inoculated cells 10⁶ cells/ml
Procedure: as §1, §2

[13] = tested on: Proteus vulgaris IFO 3988; assay: as above; type: cell-based; settings: IFO3988, inoculated cells 10⁶ cells/ml
Procedure: as §1, §2

[14] = tested on: Pseudomonas aeruginosa IFO 12582; assay: as above; type: cell-based; settings: IFO12582, inoculated cells 10⁶ cells/ml
Procedure: as §1, §2

[15] = tested on: S. aureus No.88; assay: as above; type: cell-based; settings: Staphylococcus aureus; quinolone resistant MRSA; inoculated cells 10⁶ cells/ml
Procedure: as §1, §2

[16] = tested on: S. epidermidis ATCC 12228; assay: as above; type: cell-based; settings: Staphylococcus epidermidis, ATCC12228; inoculated cells 10⁶ cells/ml
Procedure: as §1, §2

[17] = tested on: S. epidermidis SEY-223; assay: as above; type: cell-based; settings: Staphylococcus epidermidis, SEY223; quinolone resistant bacteria; inoculated cells 10⁶ cells/ml
Procedure: as §1, §2

[18] = tested on: S. pneumoniae Type-III; assay: as above; type: cell-based; settings: Streptococcus pneumoniae; inoculated cells 10⁶ cells/ml; medium supplemented with 10% horse blood
Procedure: as §1, §2

[19] = tested on: S. viridans America; assay: as above; type: cell-based; settings: Streptococcus viridans; inoculated cells 10⁶ cells/ml; medium supplemented with 10% horse blood
Procedure: as §1, §2

[20] = tested on: Serratia marcescens IFO 12648; assay: as above; type: cell-based; settings: IFO12648, inoculated cells 10⁶ cells/ml
Procedure: as §1, §2

[21] = tested on: Shigella flexneri EW-10; assay: as above; type: cell-based; settings: EW10, inoculated cells 10⁶ cells/ml
Procedure: as §1, §2

[22] = tested on: Staphylococcus aureus FDA 209P; assay: as above; type: cell-based; settings: FDA209P, inoculated cells 10⁶ cells/ml
Procedure: as §1, §2

[23] = tested on: Streptococcus pyogenes C-203; assay: as above; type: cell-based; settings: C203, inoculated cells 10⁶ cells/ml, medium supplemented with 10% horse blood
Procedure: as §1, §2

[24] = tested on: B. fragilis BFY-18; assay: Antibacterial effect against specific bacteria (MIC); type: cell-based; settings: Bacteroides fragilis, BFY18; same manner as Experimental Example 1
Procedure: as §1
(§3) In the same manner as in Experimental Example 1, the antibacterial effect against specific bacteria such as Chlamydia, Mycoplasma and acid-fast bacteria and anaerobic bacteria was determined.

[25] = tested on: Chlamydia trachomatis D/UW-3Cx; assay: as above; type: cell-based; settings: same manner as Experimental Example 1
Procedure: as §1, §3

[26] = tested on: Mycobacterium smegmatis IFO 3153; assay: as above; type: cell-based; settings: Mycolicibacterium smegmatis, IFO3153; same manner as Experimental Example 1
Procedure: as §1, §3

[27] = tested on: Mycoplasma pneumoniae ATCC 29343; assay: as above; type: cell-based; settings: ATCC29343, same manner as Experimental Example 1
Procedure: as §1, §3

[28] = tested on: Ureaplasma urealyticum ATCC 27618; assay: as above; type: cell-based; settings: ATCC27618, same manner as Experimental Example 1
Procedure: as §1, §3

[29] = tested on: E. coli KC-14; assay: MIC of the infectious bacteria used for experimental infection; type: cell-based; settings: Escherichia coli, KC14; infectious strain of the mouse protection test
Procedure: as §1
(§4) Experimental infection was caused by intraperitoneal inoculation of respective bacteria to male mice. One hour after the inoculation, a test compound was orally administered to the mice. The therapeutic effect of each test compound was evaluated by reference to the 50% effective dose (ED₅₀) which was based on the survival ratio at 7 days after the administration according to the probit method [Proc. Soc. Exp. Med., Vol. 57, p 261-264 (1944)]. The minimum inhibitory concentration (MIC) of the infectious bacteria used was also determined. […]

[30] = tested on: S. aureus MRSA Y-238; assay: as above; type: cell-based; settings: Staphylococcus aureus, infectious strain of the mouse protection test
Procedure: as §1, §4

[31] = tested on: S. aureus Smith; assay: as above; type: cell-based; settings: Staphylococcus aureus; infectious strain of the mouse protection test
Procedure: as §1, §4

[32] = tested on: E. coli KC-14; assay: Protection of mice from experimental infection; type: in vivo; settings: Table 3-2: male mice; intraperitoneal inoculation (744×LD₅₀); oral administration one hour after inoculation; survival ratio at 7 days
Procedure: as §4

[33] = tested on: S. aureus MRSA Y-238; assay: Protection of mice from experimental infection; type: in vivo; settings: Table 3-2: male mice; intraperitoneal inoculation 7.5×10⁵ cells/mouse (185×LD₅₀); oral administration one hour after inoculation; survival ratio at 7 days
Procedure: as §4

[34] = tested on: S. aureus Smith; assay: Protection of mice from experimental infection; type: in vivo; settings: male mice; intraperitoneal inoculation 2.8×10⁶ cells/mouse (123×LD₅₀); oral administration one hour after inoculation; survival ratio at 7 days, probit method
Procedure: as §4

Compound: COc1c(N2CC[C@@](CN)(CF)C2)c(F)cc2c(=O)c(C(=O)O)cn(C3CC3)c12 [Example 17, (S)-7-(3-aminomethyl-3-fluoromethylpyrrolidin-1-yl)-1-cyclopropyl-6-fluoro-1,4-dihydro-8-methoxy-4-oxo-3-quinolinecarboxylic acid]
- MIC [1]: 0.1 µg/mL (≈ 0.245 µM)
- MIC [2]: 0.2 µg/mL (≈ 0.491 µM)
- MIC [3]: 0.025 µg/mL (≈ 0.0614 µM)
- MIC [4]: 0.2 µg/mL (≈ 0.491 µM)
- MIC [5]: 1.56 µg/mL (≈ 3.83 µM)
- MIC [6]: 3.13 µg/mL (≈ 7.68 µM)
- MIC [7]: 0.39 µg/mL (≈ 0.957 µM)
- MIC [8]: 0.39 µg/mL (≈ 0.957 µM)
- MIC [9]: 0.025 µg/mL (≈ 0.0614 µM)
- MIC [10]: 0.1 µg/mL (≈ 0.245 µM)
- MIC [11]: 0.05 µg/mL (≈ 0.123 µM)
- MIC [12]: 0.78 µg/mL (≈ 1.91 µM)
- MIC [13]: 0.78 µg/mL (≈ 1.91 µM)
- MIC [14]: 1.56 µg/mL (≈ 3.83 µM)
- MIC [15]: 0.78 µg/mL (≈ 1.91 µM)
- MIC [16]: 0.025 µg/mL (≈ 0.0614 µM)
- MIC [17]: 0.78 µg/mL (≈ 1.91 µM)
- MIC [18]: 0.05 µg/mL (≈ 0.123 µM)
- MIC [19]: 0.1 µg/mL (≈ 0.245 µM)
- MIC [20]: 0.39 µg/mL (≈ 0.957 µM)
- MIC [21]: 0.025 µg/mL (≈ 0.0614 µM)
- MIC [22]: 0.012 µg/mL (≈ 0.0295 µM)
- MIC [23]: 0.1 µg/mL (≈ 0.245 µM)
- MIC [24]: 0.2 µg/mL (≈ 0.491 µM)
- MIC [25]: 0.025 µg/mL (≈ 0.0614 µM)
- MIC [26]: 0.1 µg/mL (≈ 0.245 µM)
- MIC [27]: 0.1 µg/mL (≈ 0.245 µM)
- MIC [28]: 0.39 µg/mL (≈ 0.957 µM)
- MIC [29]: 0.025 µg/mL
- MIC [30]: 0.39 µg/mL
- MIC [31]: ≤ 0.006 µg/mL
- ED₅₀ (mg/mouse) (95% confidence limit) [32]: 0.011(0.008-0.015) mg/mouse
- ED₅₀ (mg/mouse) (95% confidence limit) [33]: 1.540(1.103-2.151) mg/mouse
- ED₅₀ (mg/mouse) (95% confidence limit) [34]: 0.031(0.021-0.044) mg/mouse
